Values joined by “and” are separate entries in the source; they are usually repeats but may differ in a detail not shown here. Identical values can stand only once. Like-named read-outs stand apart in the source and are kept apart here. Marks after values point to notes of the source that are not given here.
Test: Phase 1 crossover PK study: oral solution fed/fasted vs IV infusion in healthy subjects
Assay type: in vivo, human
Settings: for bioavailability: dose increasing from 180 mg to 320 mg
Method: This pharmacokinetic (PK) study in healthy subjects was conducted to characterize and compare the PK parameters in plasma following a single intravenous (IV) dose of Elraglusib Injection, Elraglusib Oral Solution after fasting, and Elraglusib Oral Solution after a high-fat meal (fed). The study was intended to assess the potential feasibility of an oral formulation of elraglusib based on systemic exposure being within the biologically active range. In clinical studies conducted to date, elraglusib Injection (10 mg/mL) is administered IV once or twice per week over multiple hours, which requires a significant amount of time and resources by both patients and site personnel. […] See Example 3 above.
The route of administration is by IV infusion after diluting elraglusib for injection with 0.9% Sodium Chloride Injection.
It is a clear, red solution, free of visible particulate matter and a low bioburden liquid dosage form that is self-preserving against microbial growth.
Subjects received a single 3.3 mg/kg dose of each of the following in a randomly assigned order separated by a 2-week period.
During the study, the high fat meal was administered over a period of under 30 minutes (in almost all cases, 28 minutes).
Elraglusib Injection (10 mg/mL) administered as an IV infusion over 60 minutes (concentration in mg/mL and infusion rate in mL/kg/hour could vary depending on the subject's body weight).
PK parameters including AUC, Cmax, Tmax, and t1/2 were analyzed by standard non-compartmental analysis (NCA) methods following each of the elraglusib doses. Log transformed Cmax and AUC parameters in subjects having adequate PK data following at least 1 of the oral and IV doses were used to assess the relative bioavailability of the oral dose (fed and/or fasted) compared to the IV dose.
All efforts were made to obtain the PK samples at the scheduled nominal times relative to dosing. PK samples were assayed using validated analytical methods.

[1] = oral 3.3 mg/kg fasted state, human plasma
[2] = oral 3.3 mg/kg fed state, human plasma
[3] = oral fasted vs IV infusion, 3.3 mg/kg
[4] = oral fed vs IV infusion, 3.3 mg/kg
[5] = oral fed vs oral fasted, 3.3 mg/kg

Compound Cn1cc(C2=C(c3coc4ccc(F)cc34)C(=O)NC2=O)c2cc3c(cc21)OCO3 [elraglusib, 3-(5-fluorobenzofuran-3-yl)-4-(5-methyl-5H-[1,3]dioxolo[4,5-f]indol-7-yl)-1H-pyrrole-2,5-dione] has a Tmax (human, plasma, po, 3.3 mg/kg, oral 3.3 mg/kg fasted state, human plasma, read-out: Tmax Median) of 2 h, a half-life (human, plasma, po, 3.3 mg/kg, oral 3.3 mg/kg fasted state, human plasma, read-out: t1/2 Arithmetic Mean (converted)) of 16.4 h and a half-life (human, plasma, po, 3.3 mg/kg, oral 3.3 mg/kg fasted state, human plasma, read-out: t1/2 GMean (converted)) of 15.6 h. The half-life (human, plasma, po, 3.3 mg/kg, oral 3.3 mg/kg fasted state, human plasma, read-out: t1/2 Median (converted)) was 18.2 h, the AUC (human, plasma, po, 3.3 mg/kg, oral 3.3 mg/kg fed state, human plasma, read-out: AUC24 Arithmetic Mean) was 3930 ng·h/mL and the AUC (human, plasma, po, 3.3 mg/kg, oral 3.3 mg/kg fed state, human plasma, read-out: AUC24 GMean) was 3420 ng·h/mL. It also gave an AUC (human, plasma, po, 3.3 mg/kg, oral 3.3 mg/kg fed state, human plasma, read-out: AUC24 Median) of 3990 ng·h/mL, an AUC (human, plasma, po, 3.3 mg/kg, oral 3.3 mg/kg fed state, human plasma, read-out: AUC48 Arithmetic Mean) of 4550 ng·h/mL and an AUC (human, plasma, po, 3.3 mg/kg, oral 3.3 mg/kg fed state, human plasma, read-out: AUC48 GMean) of 3980 ng·h/mL. For the same compound, the AUC (human, plasma, po, 3.3 mg/kg, oral 3.3 mg/kg fed state, human plasma, read-out: AUC48 Median) was 4440 ng·h/mL, the AUC (human, plasma, po, 3.3 mg/kg, oral 3.3 mg/kg fed state, human plasma, read-out: AUC72 Arithmetic Mean) was 4780 ng·h/mL and the AUC (human, plasma, po, 3.3 mg/kg, oral 3.3 mg/kg fed state, human plasma, read-out: AUC72 GMean) was 4160 ng·h/mL. It also gave an AUC (human, plasma, po, 3.3 mg/kg, oral 3.3 mg/kg fed state, human plasma, read-out: AUC72 Median) of 4600 ng·h/mL, an AUC (human, plasma, po, 3.3 mg/kg, oral 3.3 mg/kg fed state, human plasma, read-out: AUC96 Arithmetic Mean) of 4890 ng·h/mL and an AUC (human, plasma, po, 3.3 mg/kg, oral 3.3 mg/kg fed state, human plasma, read-out: AUC96 GMean) of 4250 ng·h/mL. For the same compound, the AUC (human, plasma, po, 3.3 mg/kg, oral 3.3 mg/kg fed state, human plasma, read-out: AUC96 Median) was 4730 ng·h/mL, the AUC(0-t) (human, plasma, po, 3.3 mg/kg, oral 3.3 mg/kg fed state, human plasma, read-out: AUClast Arithmetic Mean) was 4890 ng·h/mL and the AUC(0-t) (human, plasma, po, 3.3 mg/kg, oral 3.3 mg/kg fed state, human plasma, read-out: AUClast GMean) was 4250 ng·h/mL. For the same compound, the AUC(0-t) (human, plasma, po, 3.3 mg/kg, oral 3.3 mg/kg fed state, human plasma, read-out: AUClast Median) was 4730 ng·h/mL, the AUC(0-inf) (human, plasma, po, 3.3 mg/kg, oral 3.3 mg/kg fed state, human plasma, read-out: AUC∞ Arithmetic Mean) was 5000 ng·h/mL and the AUC(0-inf) (human, plasma, po, 3.3 mg/kg, oral 3.3 mg/kg fed state, human plasma, read-out: AUC∞ GMean) was 4330 ng·h/mL. It also gave an AUC(0-inf) (human, plasma, po, 3.3 mg/kg, oral 3.3 mg/kg fed state, human plasma, read-out: AUC∞ Median) of 5020 ng·h/mL, a CL/F (human, plasma, po, 3.3 mg/kg, oral 3.3 mg/kg fed state, human plasma, read-out: CL/F Arithmetic Mean (converted)) of 15.1 mL/min/kg and a CL/F (human, plasma, po, 3.3 mg/kg, oral 3.3 mg/kg fed state, human plasma, read-out: CL/F GMean (converted)) of 12.7 mL/min/kg. For the same compound, the CL/F (human, plasma, po, 3.3 mg/kg, oral 3.3 mg/kg fed state, human plasma, read-out: CL/F Median (converted)) was 11 mL/min/kg, the Cmax (human, plasma, po, 3.3 mg/kg, oral 3.3 mg/kg fed state, human plasma, read-out: Cmax Arithmetic Mean) was 592 ng/mL and the Cmax (human, plasma, po, 3.3 mg/kg, oral 3.3 mg/kg fed state, human plasma, read-out: Cmax GMean) was 474 ng/mL. It also gave a Cmax (human, plasma, po, 3.3 mg/kg, oral 3.3 mg/kg fed state, human plasma, read-out: Cmax Median) of 507 ng/mL, a Tmax (human, plasma, po, 3.3 mg/kg, oral 3.3 mg/kg fed state, human plasma, read-out: Tmax Arithmetic Mean) of 5.34 h and a Tmax (human, plasma, po, 3.3 mg/kg, oral 3.3 mg/kg fed state, human plasma, read-out: Tmax GMean) of 5.02 h. The Tmax (human, plasma, po, 3.3 mg/kg, oral 3.3 mg/kg fed state, human plasma, read-out: Tmax Median) was 5 h, the Vd/F (human, plasma, po, 3.3 mg/kg, oral 3.3 mg/kg fed state, human plasma, read-out: Vz/F GMean) was 20.9 L/kg and 1530 L and the half-life (human, plasma, po, 3.3 mg/kg, oral 3.3 mg/kg fed state, human plasma, read-out: t1/2 Arithmetic Mean (converted)) was 20.8 h. It also gave a half-life (human, plasma, po, 3.3 mg/kg, oral 3.3 mg/kg fed state, human plasma, read-out: t1/2 GMean (converted)) of 19 h, a half-life (human, plasma, po, 3.3 mg/kg, oral 3.3 mg/kg fed state, human plasma, read-out: t1/2 Median (converted)) of 21.2 h and an AUC(0-t) (human, plasma, po, 3.3 mg/kg, oral 3.3 mg/kg, Fasted, read-out: AUClast LS Means) of 1460 ng·h/mL. It also gave an AUC(0-inf) (human, plasma, po, 3.3 mg/kg, oral 3.3 mg/kg, Fasted, read-out: AUC∞ LS Means) of 1480 ng·h/mL, a Cmax (human, plasma, po, 3.3 mg/kg, oral 3.3 mg/kg, Fasted, read-out: Cmax LS Means) of 133 ng/mL and an AUC(0-t) (human, plasma, po, 3.3 mg/kg, oral 3.3 mg/kg, Fed, read-out: AUClast LS Means) of 4250 ng·h/mL. The AUC(0-inf) (human, plasma, po, 3.3 mg/kg, oral 3.3 mg/kg, Fed, read-out: AUC∞ LS Means) was 4330 ng·h/mL, the Cmax (human, plasma, po, 3.3 mg/kg, oral 3.3 mg/kg, Fed, read-out: Cmax LS Means) was 474 ng/mL and the bioavailability (human, plasma, po, human, fasting, read-out: oral bioavailability, FAUC∞ based regression) was 14 to 24%. For the same compound, the bioavailability (human, plasma, po, human, fasting, read-out: oral bioavailability, FCmax based regression) was 4 to 16%, the bioavailability (human, plasma, po, human, fed state, read-out: oral bioavailability, FAUC∞ based regression) was 41 to 71% and the bioavailability (human, plasma, po, human, fed state, read-out: oral bioavailability, FCmax based regression) was 16 to 52%. For the same compound, the “% extrap Arithmetic Mean” value [1] was 1.518%, the “% extrap GMean” value [1] was 1.219% and the “% extrap Median” value [1] was 1.45%. The “AUC∞/Dose Arithmetic Mean” value [1] was 7.224 ng·h/mL/mg, the “AUC∞/Dose GMean” value [1] was 6.128 ng·h/mL/mg and the “AUC∞/Dose Median” value [1] was 5.77 ng·h/mL/mg. For the same compound, the “Clast Arithmetic Mean” value [1] was 1.158 ng/mL, the “Clast GMean” value [1] was 0.8024 ng/mL and the “Clast Median” value [1] was 0.719 ng/mL. For the same compound, the “Cmax/Dose Arithmetic Mean” value [1] was 0.6705 ng/mL/mg, the “Cmax/Dose GMean” value [1] was 0.5482 ng/mL/mg and the “Cmax/Dose Median” value [1] was 0.622 ng/mL/mg. The “R^2 Arithmetic Mean” value [1] was 0.9926 #, the “R^2 GMean” value [1] was 0.9925 # and the “R^2 Median” value [1] was 0.9962 #. For the same compound, the “λZ Arithmetic Mean” value [1] was 0.04754 h⁻¹, the “λZ GMean” value [1] was 0.04443 h⁻¹ and the “λZ Median” value [1] was 0.0381 h⁻¹. The “% extrap Arithmetic Mean” value [2] was 1.865%, the “% extrap GMean” value [2] was 1.301% and the “% extrap Median” value [2] was 1.73%. For the same compound, the “AUC∞/Dose Arithmetic Mean” value [2] was 20.18 ng·h/mL/mg, the “AUC∞/Dose GMean” value [2] was 17.90 ng·h/mL/mg and the “AUC∞/Dose Median” value [2] was 19.2 ng·h/mL/mg. The “Clast Arithmetic Mean” value [2] was 3.055 ng/mL, the “Clast GMean” value [2] was 2.053 ng/mL and the “Clast Median” value [2] was 2.03 ng/mL. For the same compound, the “Cmax/Dose Arithmetic Mean” value [2] was 2.340 ng/mL/mg, the “Cmax/Dose GMean” value [2] was 1.958 ng/mL/mg and the “Cmax/Dose Median” value [2] was 2.11 ng/mL/mg. The “R^2 Arithmetic Mean” value [2] was 0.9928 #, the “R^2 GMean” value [2] was 0.9928 # and the “R^2 Median” value [2] was 0.9963 #. For the same compound, the “λZ Arithmetic Mean” value [2] was 0.04026 h⁻¹, the “λZ GMean” value [2] was 0.03648 h⁻¹ and the “λZ Median” value [2] was 0.0327 h⁻¹. For the same compound, the “Relative bioavailability, Ratio (%) Fasted/IV, AUClast” value [3] was 17.11%, the “Relative bioavailability, Ratio (%) Fasted/IV, AUC∞” value [3] was 17.15% and the “Relative bioavailability, Ratio (%) Fasted/IV, Cmax” value [3] was 7.62%. For the same compound, the “Relative bioavailability, Ratio (%) Fed/IV, AUClast” value [4] was 50.75%, the “Relative bioavailability, Ratio (%) Fed/IV, AUC∞” value [4] was 51.06% and the “Relative bioavailability, Ratio (%) Fed/IV, Cmax” value [4] was 27.24%. For the same compound, the “Relative bioavailability, Ratio (%) Fed/Fasted, AUClast” value [5] was 291.00%, the “Relative bioavailability, Ratio (%) Fed/Fasted, AUC∞” value [5] was 292.05% and the “Relative bioavailability, Ratio (%) Fed/Fasted, Cmax” value [5] was 357.10%. It also gave a concentration at 96 h (plasma, other: oral solution (fed and fasted) and IV infusion, 3.3 mg/kg, human, individual subjects, across treatments, read-out: quantifiable plasma concentrations at 96 hours post-dose) of 0.273 to 7.18 ng/mL.

— patent US20250325517A1, “ORAL DOSAGE FORMS OF ELRAGLUSIB” (Actuate Therapeutics, Inc., priority 2022, published 2025)
